Patent publication US11420958B2, “Aryl and heteroaryl substituted indole compounds” (BRISTOL-MYERS SQUIBB COMPANY, priority 2017, dated 2022)

Columns and labels:
Type in all cases: cell-based
human TLR8 = human TLR8 (Homo sapiens (Human), UniProt Q9NR97); assay: TLR8 inhibition reporter assay (HEK-Blue, SEAP); conditions: HEK-Blue cells overexpressing human TLR8, R848 15.9 μM stimulation
Method in brief: (§1)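 Reporter cells, NF-κB/AP-1-driven SEAP; cmpd 0.05 nM–50 μM final, 30 min RT pre-treat; stim gardiquimod 7.5 μM (TLR7), R848 15.9 μM (TLR8), ODN2006 5 nM (TLR9); 22 h 37 °C; % inhibition of SEAP signal.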

human TLR9 = human TLR9 (Homo sapiens (Human), UniProt Q9NR96); assay: TLR9 inhibition reporter assay (HEK-Blue, SEAP); conditions: HEK-Blue cells overexpressing human TLR9, ODN2006 5 nM stimulation
human TLR9, sequence (Q9NR96 26-1032): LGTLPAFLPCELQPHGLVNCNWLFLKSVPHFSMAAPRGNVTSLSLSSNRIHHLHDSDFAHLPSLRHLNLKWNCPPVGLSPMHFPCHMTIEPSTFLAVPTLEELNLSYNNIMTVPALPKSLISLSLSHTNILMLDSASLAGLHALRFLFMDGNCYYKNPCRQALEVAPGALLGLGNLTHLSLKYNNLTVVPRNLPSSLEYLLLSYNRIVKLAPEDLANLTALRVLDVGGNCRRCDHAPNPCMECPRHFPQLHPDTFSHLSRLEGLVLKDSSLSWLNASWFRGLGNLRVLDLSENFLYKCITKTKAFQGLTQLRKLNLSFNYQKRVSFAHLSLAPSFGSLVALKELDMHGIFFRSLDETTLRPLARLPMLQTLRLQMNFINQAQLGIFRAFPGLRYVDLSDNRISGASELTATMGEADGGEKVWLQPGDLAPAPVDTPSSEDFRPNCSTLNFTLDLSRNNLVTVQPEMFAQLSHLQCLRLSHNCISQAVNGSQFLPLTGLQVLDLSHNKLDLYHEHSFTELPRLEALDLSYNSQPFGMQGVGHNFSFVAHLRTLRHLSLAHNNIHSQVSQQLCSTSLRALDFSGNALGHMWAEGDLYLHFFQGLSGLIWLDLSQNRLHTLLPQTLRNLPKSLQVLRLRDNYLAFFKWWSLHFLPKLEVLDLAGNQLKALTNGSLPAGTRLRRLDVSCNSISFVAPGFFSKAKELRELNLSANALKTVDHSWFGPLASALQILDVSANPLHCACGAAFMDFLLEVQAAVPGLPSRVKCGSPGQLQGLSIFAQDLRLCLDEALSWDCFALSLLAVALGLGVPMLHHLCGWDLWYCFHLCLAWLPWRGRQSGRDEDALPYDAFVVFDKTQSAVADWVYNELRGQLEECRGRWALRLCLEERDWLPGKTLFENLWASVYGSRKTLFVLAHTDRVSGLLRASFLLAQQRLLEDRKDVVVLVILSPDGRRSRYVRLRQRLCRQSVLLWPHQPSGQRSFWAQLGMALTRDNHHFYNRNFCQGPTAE
Method in brief: as §1

human TLR7 = human TLR7 (Homo sapiens (Human), UniProt Q9NYK1); assay: TLR7 inhibition reporter assay (HEK-Blue, SEAP); conditions: HEK-Blue cells overexpressing human TLR7, gardiquimod 7.5 μM stimulation
human TLR7, sequence (Q9NYK1 27-1049): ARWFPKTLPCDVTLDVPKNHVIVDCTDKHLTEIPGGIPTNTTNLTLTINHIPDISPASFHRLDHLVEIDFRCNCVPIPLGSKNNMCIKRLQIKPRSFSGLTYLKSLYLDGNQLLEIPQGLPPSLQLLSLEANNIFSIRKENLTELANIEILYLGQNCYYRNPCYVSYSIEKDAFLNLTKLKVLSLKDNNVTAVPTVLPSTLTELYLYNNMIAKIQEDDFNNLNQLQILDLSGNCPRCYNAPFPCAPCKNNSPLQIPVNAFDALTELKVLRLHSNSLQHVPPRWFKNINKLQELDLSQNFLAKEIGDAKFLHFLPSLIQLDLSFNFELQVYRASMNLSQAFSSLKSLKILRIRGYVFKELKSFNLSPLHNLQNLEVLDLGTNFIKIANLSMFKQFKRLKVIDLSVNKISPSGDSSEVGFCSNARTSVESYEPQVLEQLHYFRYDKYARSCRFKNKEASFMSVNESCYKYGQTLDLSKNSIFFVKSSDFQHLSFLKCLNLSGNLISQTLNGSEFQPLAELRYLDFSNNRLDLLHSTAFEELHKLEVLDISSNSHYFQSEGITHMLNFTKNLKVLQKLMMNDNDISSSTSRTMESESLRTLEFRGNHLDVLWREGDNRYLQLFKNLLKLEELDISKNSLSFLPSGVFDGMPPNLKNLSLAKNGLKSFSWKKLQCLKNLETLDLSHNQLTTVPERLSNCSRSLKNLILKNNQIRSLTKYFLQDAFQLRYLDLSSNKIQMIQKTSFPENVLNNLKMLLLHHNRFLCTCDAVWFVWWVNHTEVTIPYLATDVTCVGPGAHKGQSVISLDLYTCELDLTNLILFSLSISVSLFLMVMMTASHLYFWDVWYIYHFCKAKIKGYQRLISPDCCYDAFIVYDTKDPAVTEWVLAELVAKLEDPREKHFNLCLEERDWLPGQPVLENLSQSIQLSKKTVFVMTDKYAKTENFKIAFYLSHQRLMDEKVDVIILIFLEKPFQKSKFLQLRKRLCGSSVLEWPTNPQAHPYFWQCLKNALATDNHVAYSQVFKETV
Method in brief: as §1

human TLR8, sequence (Q9NR97 27-1041): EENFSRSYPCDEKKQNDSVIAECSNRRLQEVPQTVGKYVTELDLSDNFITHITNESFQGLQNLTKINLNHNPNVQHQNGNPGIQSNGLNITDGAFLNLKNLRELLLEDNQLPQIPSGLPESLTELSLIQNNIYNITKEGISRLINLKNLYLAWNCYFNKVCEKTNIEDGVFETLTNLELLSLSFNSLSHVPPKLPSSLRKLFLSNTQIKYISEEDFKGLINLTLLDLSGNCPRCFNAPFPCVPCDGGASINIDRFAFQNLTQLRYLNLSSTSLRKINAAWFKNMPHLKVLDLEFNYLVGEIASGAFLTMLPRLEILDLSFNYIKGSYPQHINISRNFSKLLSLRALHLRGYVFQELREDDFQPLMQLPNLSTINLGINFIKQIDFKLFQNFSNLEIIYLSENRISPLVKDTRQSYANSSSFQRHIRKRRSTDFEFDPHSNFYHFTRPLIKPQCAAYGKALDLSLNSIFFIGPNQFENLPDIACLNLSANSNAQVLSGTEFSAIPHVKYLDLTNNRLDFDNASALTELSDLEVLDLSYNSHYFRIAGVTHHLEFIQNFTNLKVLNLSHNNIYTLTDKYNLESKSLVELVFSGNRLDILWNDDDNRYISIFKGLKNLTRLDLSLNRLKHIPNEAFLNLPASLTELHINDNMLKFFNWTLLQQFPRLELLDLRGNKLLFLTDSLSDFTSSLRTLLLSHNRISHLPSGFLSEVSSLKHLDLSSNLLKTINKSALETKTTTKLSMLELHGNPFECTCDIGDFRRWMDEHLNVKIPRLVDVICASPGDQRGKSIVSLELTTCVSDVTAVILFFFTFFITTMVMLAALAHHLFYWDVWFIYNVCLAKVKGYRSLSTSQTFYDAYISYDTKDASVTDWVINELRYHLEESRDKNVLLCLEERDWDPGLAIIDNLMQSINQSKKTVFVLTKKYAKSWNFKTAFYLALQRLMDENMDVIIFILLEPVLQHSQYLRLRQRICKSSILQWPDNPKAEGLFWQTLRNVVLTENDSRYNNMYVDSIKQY

SMILES: Cc1cc(-c2[nH]c3ccc(-c4nnc(C5CN6CCC5CC6)o4)cc3c2C(C)C)ccn1 (stereo not drawn) [Example 213, 2-(3-isopropyl-2-(2-methylpyridin-4-yl)-1H-indol-5-yl)-5-(quinuclidin-3-yl)-1,3,4-oxadiazole]
- IC50 (human TLR8): 3.3 nM
- IC50 (human TLR9): 655 nM
- IC50 (human TLR7): 47 nM
